Experiments:
Caco-2 cell monolayers = assay: Caco-2 cell permeability; format: in vitro ADME; details: 2 hour
Description: Here, Caco-2 cell line (cat. HTB-37TM) was purchased from the ATCC. Cells were cultivated in T-75 flasks in a cell culture incubator set at 37° C., 5% CO2, 95% relative humidity. Cells were allowed to grow to reach 80-90% confluence before seeding. […] The cells were grown in culture medium consisting of Dulbecco's modified Eagle's medium supplemented with 10% fetal bovine serum, 100 U/mL penicillin and 100 μg/mL streptomycin. The culture medium was replaced every 2 days and the cells were maintained at 37° C., 95% relative humidity and 5% CO2.
For a quality integrity control of the monolayers of seeded cells, the Lucifer yellow (LY) transport experiment was performed to evaluate monolayer integrity. As for a quality control of each filter, the transepithelial electrical resistance (TEER) was measured before the start of and at the end of transport experiments. Physiologically and morphologically well developed Caco-2 cell monolayers with TEER values greater than 400 Ωcm^2 were used for the studies.
The solution volumes in apical and basolateral chambers were set to 0.4 and 0.6 ml respectively. Samples were taken from both the apical and basolateral compartment at the end of the 2 hour incubation at 37° C. […] The excitation and emission wavelengths were 490 nm and 530 nm, respectively.

MDA-MB-468 = assay: Antiproliferation assay (MTS), MDA-MB-468 cells; format: cell-based; details: Homo sapiens, MDA-MB-468, 96 h, Table 1, read-out: Antiproliferative IC50 MDA-MB-468
Procedure, shortened: (§1)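 Cells seeded after overnight attachment were treated in triplicate for 96 h at 37 °C, 5% CO2, final DMSO below 1%. Viability read by MTS absorbance; concentration-response curves fitted by linear regression against DMSO controls.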

MDA-MB-231 = assay: Antiproliferation assay (MTS), MDA-MB-231 cells; format: cell-based; details: Homo sapiens, MDA-MB-231, 96 h, read-out: Antiproliferative IC50 MDA-MB-231, Table 1
Procedure, shortened: as §1

Nek2 protein = assay: Immunoblot of Nek2 protein level in K562 cells; format: cell-based; details: 1 μM, up to 24 hrs
Description: Immunoblot Analysis: For immunoblotting experiments, cells were plated in a 6-well culture plate and cultured overnight. Cells were incubated with the test compounds for the indicated time and whole cell lysate was harvested by adding 1×SDS-PAGE Sample Buffer (62.5 mM Tris-HCl (pH 6.8 at 25° C.), 2% w/v SDS, 10% glycerol, 50 mM DTT, and 0.01% w/v bromophenol blue or phenol red). Proteins were separated by SDS-PAGE electrophoresis and transferred to PVDF membrane. Protein expression was immunoblotted using various primary antibodies and detected using Immobilon Western Chemiluminescent HRP Substrate (Millipore, Billerica Mass. 01821 USA). Antibodies used include anti-Cleaved Caspase3, (Rabbit, Cell Signaling Technology, Danvers Mass. 01923 USA); anti-PARP (Rabbit, Cell Signaling Technology, Danvers Mass. 01923 USA); anti-MCL-1 (mouse, BD Biosciences, San Jose Calif. 95131 USA); anti-XIAP (rabbit, Cell Signaling Technology, Danvers Mass. 01923 USA); anti-Bcl-2 (mouse, Santa Cruz Biotechnology, Santa Cruz Calif. 95060); anti-Cyclin BI (mouse, BD Biosciences, San Jose Calif. 95131 USA); anti-Cyclin D1 (mouse, Santa Cruz Biotechnology, Santa Cruz Calif. 95060); Anti-Nek2 (mouse, BD Biosciences, San Jose Calif. 95131 USA); Anti-HEC1, (rabbit, GeneTex, Inc., Irvine Calif. 92606 USA); and anti-actin (mouse, Millipore, Billerica Mass. 01821 USA). […]

HeLa cell = assay: Immunostaining and microscopy, metaphase chromosomal misalignment; format: cell-based; details: compared to control (DMSO)
Description: Immunostaining and Microscopy: Cells were grown on polylysine-coated coverslips. Cells were gently washed with BRB80 buffer (80 mM piperazine-N,N′-bis(2-ethanesulfonic acid) (PIPES) pH 6.8, 5 mM EGTA, 1 mM MgCl2) before fixation with cold 100% methanol or 4% paraformaldehyde in BRB80 or phosphate-buffered saline (PBS). Following permeabilization with 0.4% Triton X-100, cells were blocked with 2% bovine serum albumin (BSA) in PBS and then incubated with anti-α-Tubulin antibodies (mouse, FITC Conjugate; Sigma Aldrich, St. Louis Mo. USA) diluted in 2% BSA in PBS. DAPI (4′,6′-diamidino-2-phenylindole) staining was applied after secondary antibody incubation, and cells were mounted on cover slides with Prolong gold antifade reagent (Life Technologies, Carlsbad Calif. USA 92008). Images were captured with a Zeiss Axioplan 2 microscope equipped with a deconvolution module or with a Zeiss LSM-510 META laser scanning confocal microscope (Carl Zeiss Microscopy, Thomwood N.Y. 10594 USA).
After fixation, cells are stained with anti-tubulin antibody and DAPI to stain for microtubules and DNA, respectively, and imaged. […] Fluorescent images were taken of the cells and the percentage of cells with metaphase misalignment were counted and recorded.

BT474 xenograft = assay: Mouse xenograft study, BT474 breast cancer; format: in vivo, nude mice
Description: Mouse Xenograft Studies: Xenograft studies adapted from a previous published protocol (Wu et al, Cancer Res. 2008 Oct. 15; 68(20):8393-9). Female BALB/c nude (nu/nu) mice (5-8 weeks) were obtained from Lasco (Industrial Park, Tai-Ping Area, Taichung City, Taiwan). The animals were maintained under specific pathogen-free conditions, and food and water were supplied ad libitum. Housing and all procedures involving animals were performed according to protocols approved by the IACUC in DCB. Nude mice were inoculated with 17-β-estradiol pellets 72 to 96 h before implantation of BT-474 cells. For subcutaneous implantation of BT-474 cells, cells (1×10^7 in matrix gel/animal) were injected subcutaneously into the right subaxillary region. Treatment started when average tumor volume reached about 200 mm^3; mice were treated (p.o., QD/28 cycles in total) with vehicle A (0.5% methylcellulose), or candidate compounds formulated in vehicle A (10-50 mg/kg body weight). Perpendicular diameter measurement of each tumor were made with digital calipers and the volume of the tumor calculated using formula (L×W×W)/2, in which L and W represent the length and the width, respectively. Body weights were measured three times weekly.
The in vivo effectiveness of contemplated compounds in the reduction of tumor volume in nude mice is readily apparent.
Development of resistance to treatment in advanced stage tumors is a well known phenomenon. Activity of select Hec1 inhibitor in such late stage tumors was determined by re-dosing of BT474 xenografted animals that had previously subjected to 35 days of treatment with 110095 (compound 27 of Table 1). Re-treatment with 110095 was starting on day 42 and continued for 21 days.

MDA-MB-231 xenograft = assay: Mouse xenograft study, MDA-MB-231 breast cancer; format: in vivo; details: MDA-MB-231 breast cancer xenograft, nude mice

Structure (SMILES): COCCOc1cnc(Sc2cc(C)c(-c3csc(NC(=O)c4ccncc4)n3)c(C)c2)cn1 [Compound 27, N-(4-{4-(5-(2-methoxyethoxy)pyrazin-2-ylthio)-2,6-dimethylphenyl}thiazol-2-yl)isonicotinamide]
- Caco-2 permeability (Caco-2 cell monolayers; 10 μM, both directions): moderate Caco-2 permeability
- active efflux (Caco-2 cell monolayers; Caco-2, 10 μM): no indication of significant active efflux
- IC50 (MDA-MB-468): 19.1 nM
- IC50 (MDA-MB-231): 35.1 nM
- Nek2 protein level (Nek2 protein): induced a reduction of Nek2 protein levels
- number of cells with metaphase misalignment (HeLa cell): time-dependent increase in the number of cells with metaphase misalignment
- xenograft tumor outgrowth (BT474 xenograft; BT474 breast cancer xenograft, nude mice): inhibition of xenograft tumor outgrowth
- activity in late stage tumors on re-treatment (BT474 xenograft; BT474 xenografted animals after 35 days of treatment, re-treatment from day 42 for 21 days): remained effective with late stage tumors
- xenograft tumor outgrowth (MDA-MB-231 xenograft): inhibition of xenograft tumor outgrowth
